In the NIST ThermoML archive (doi:10.1021/je060271a):
Where “and” joins values, the source holds several entries; their conditions need not be identical. Equal entries are not always repeated.

Conditions: 343.16 K, Liquid, Vibrating tube method

CCCCCC(=O)OCC(COC(=O)CCCCC)(COC(=O)CCCCC)COC(=O)CCCCC [pentaerythritol tetrahexanoate]
Conditions	mass density
12946 kPa	966.8 kg/m3
12969 kPa	966.9 kg/m3
13446 kPa	967.2 kg/m3
13485 kPa	967.3 kg/m3
13510 kPa	967.1 kg/m3
13521 kPa	967.2 kg/m3
13524 kPa	967.2 kg/m3
13527 kPa	967.3 kg/m3
13530 kPa	967.2 kg/m3
13534 kPa	967.1 kg/m3
13539 kPa	967.2 kg/m3
13542 kPa	967.2 kg/m3
13545 kPa	967.2 kg/m3
13548 kPa	967.2 kg/m3
13550 kPa	967.1 kg/m3
13554 kPa	967.3 kg/m3
13556 kPa	967.3 kg/m3
13562 kPa	967.2 kg/m3
13571 kPa	967.4 kg/m3
13578 kPa	967.2 kg/m3
13593 kPa	967.3 kg/m3
13604 kPa	967.2 kg/m3 and 967.4 kg/m3
13605 kPa	967.3 kg/m3 and 967.2 kg/m3
13606 kPa	967.2 kg/m3 and 967.3 kg/m3
13607 kPa	967.2 kg/m3
13608 kPa	967.2 kg/m3 and 967.3 kg/m3 and 967 kg/m3
13609 kPa	967.3 kg/m3
13610 kPa	967.3 kg/m3
13612 kPa	967.2 kg/m3
13620 kPa	967.2 kg/m3
13632 kPa	967.3 kg/m3
13650 kPa	967.3 kg/m3
13671 kPa	967.3 kg/m3
13695 kPa	967.3 kg/m3
13719 kPa	967.4 kg/m3
13749 kPa	967.3 kg/m3
13774 kPa	967.4 kg/m3
13798 kPa	967.5 kg/m3
13828 kPa	967.5 kg/m3
13853 kPa	967.4 kg/m3
13878 kPa	967.4 kg/m3
13960 kPa	967.5 kg/m3
14011 kPa	967.6 kg/m3
14041 kPa	967.5 kg/m3
14066 kPa	967.5 kg/m3
14096 kPa	967.6 kg/m3
14122 kPa	967.7 kg/m3
14146 kPa	967.7 kg/m3
14176 kPa	967.7 kg/m3
14201 kPa	967.5 kg/m3
14227 kPa	967.6 kg/m3
14310 kPa	967.7 kg/m3
14444 kPa	967.9 kg/m3
14501 kPa	967.9 kg/m3
14527 kPa	967.9 kg/m3
14558 kPa	967.9 kg/m3
14584 kPa	967.8 kg/m3
14611 kPa	967.9 kg/m3
14643 kPa	967.9 kg/m3
14670 kPa	968 kg/m3
14696 kPa	968 kg/m3
14723 kPa	967.9 kg/m3
14870 kPa	968.1 kg/m3
14897 kPa	968.1 kg/m3
14930 kPa	968.2 kg/m3
14958 kPa	968.2 kg/m3
14985 kPa	968.3 kg/m3
15019 kPa	968.2 kg/m3
15047 kPa	968.3 kg/m3
15080 kPa	968.3 kg/m3
15108 kPa	968.2 kg/m3
15136 kPa	968.3 kg/m3
15164 kPa	968.3 kg/m3
15198 kPa	968.4 kg/m3
15226 kPa	968.5 kg/m3
15255 kPa	968.4 kg/m3
15642 kPa	968.6 kg/m3
15668 kPa	968.6 kg/m3
15694 kPa	968.7 kg/m3
15725 kPa	968.7 kg/m3
15751 kPa	968.8 kg/m3
15777 kPa	968.7 kg/m3
15808 kPa	968.8 kg/m3
15834 kPa	968.8 kg/m3
15864 kPa	968.9 kg/m3
15891 kPa	968.9 kg/m3
15916 kPa	968.8 kg/m3
15943 kPa	969 kg/m3
15974 kPa	968.8 kg/m3
16000 kPa	969 kg/m3
16057 kPa	969 kg/m3
16359 kPa	969 kg/m3
16386 kPa	969.2 kg/m3
16412 kPa	969.2 kg/m3
16439 kPa	969.4 kg/m3
16472 kPa	969.2 kg/m3
16494 kPa	969.2 kg/m3
16872 kPa	969.5 kg/m3
16899 kPa	969.5 kg/m3
16931 kPa	969.5 kg/m3
16957 kPa	969.5 kg/m3
16982 kPa	969.7 kg/m3
17013 kPa	969.6 kg/m3
17038 kPa	969.6 kg/m3
17064 kPa	969.6 kg/m3
17094 kPa	969.8 kg/m3
17120 kPa	969.7 kg/m3
17146 kPa	969.7 kg/m3
17177 kPa	969.8 kg/m3
17203 kPa	969.7 kg/m3
17229 kPa	969.8 kg/m3
17260 kPa	969.7 kg/m3
17286 kPa	969.9 kg/m3
17312 kPa	969.7 kg/m3
17344 kPa	969.7 kg/m3
17371 kPa	969.9 kg/m3
17398 kPa	969.9 kg/m3
17430 kPa	969.9 kg/m3
19111 kPa	971.1 kg/m3
19142 kPa	970.9 kg/m3
19168 kPa	971.1 kg/m3
19194 kPa	971.2 kg/m3
19226 kPa	971.2 kg/m3
19252 kPa	971.1 kg/m3
19282 kPa	971.1 kg/m3
19307 kPa	971.2 kg/m3
19331 kPa	971.4 kg/m3
19353 kPa	971.2 kg/m3
19375 kPa	971.2 kg/m3
19400 kPa	971.3 kg/m3
19422 kPa	971.2 kg/m3
19443 kPa	971.3 kg/m3
19469 kPa	971.4 kg/m3
19491 kPa	971.3 kg/m3
19512 kPa	971.3 kg/m3
19539 kPa	971.3 kg/m3
19561 kPa	971.4 kg/m3
19583 kPa	971.4 kg/m3
19609 kPa	971.4 kg/m3
19868 kPa	971.6 kg/m3
19886 kPa	971.6 kg/m3
19908 kPa	971.6 kg/m3
19925 kPa	971.7 kg/m3
19941 kPa	971.7 kg/m3
19959 kPa	971.7 kg/m3
19975 kPa	971.6 kg/m3
19990 kPa	971.8 kg/m3
20010 kPa	971.8 kg/m3
20026 kPa	971.6 kg/m3
20042 kPa	971.7 kg/m3
20054 kPa	971.7 kg/m3
20065 kPa	971.8 kg/m3
20075 kPa	971.6 kg/m3
20086 kPa	971.7 kg/m3
20099 kPa	971.8 kg/m3
20105 kPa	971.8 kg/m3
20106 kPa	971.8 kg/m3
20108 kPa	971.7 kg/m3
20111 kPa	971.8 kg/m3
20114 kPa	971.8 kg/m3
20116 kPa	971.8 kg/m3
20117 kPa	971.8 kg/m3
20118 kPa	971.7 kg/m3
20119 kPa	971.7 kg/m3
20121 kPa	971.6 kg/m3
20122 kPa	971.7 kg/m3
20124 kPa	971.6 kg/m3 and 971.8 kg/m3
20140 kPa	971.8 kg/m3
20174 kPa	971.9 kg/m3
20204 kPa	971.8 kg/m3
20239 kPa	971.8 kg/m3
20269 kPa	971.9 kg/m3
20298 kPa	971.8 kg/m3
20328 kPa	971.8 kg/m3
20365 kPa	971.9 kg/m3
20395 kPa	971.8 kg/m3
20426 kPa	972 kg/m3
20462 kPa	971.8 kg/m3
20493 kPa	972 kg/m3
20525 kPa	972 kg/m3
20558 kPa	971.9 kg/m3
20589 kPa	972 kg/m3
20626 kPa	972.1 kg/m3
20657 kPa	972.3 kg/m3
20689 kPa	972.1 kg/m3
20727 kPa	972.1 kg/m3
20759 kPa	972.2 kg/m3
20790 kPa	972.2 kg/m3
20828 kPa	972.3 kg/m3
20860 kPa	972.2 kg/m3
20892 kPa	972.2 kg/m3
20930 kPa	972.4 kg/m3
20963 kPa	972.3 kg/m3
20998 kPa	972.3 kg/m3
21030 kPa	972.4 kg/m3
21068 kPa	972.5 kg/m3
21101 kPa	972.4 kg/m3
21134 kPa	972.4 kg/m3
21166 kPa	972.5 kg/m3
21238 kPa	972.5 kg/m3
21271 kPa	972.5 kg/m3
21309 kPa	972.6 kg/m3
21339 kPa	972.6 kg/m3
21372 kPa	972.6 kg/m3
21399 kPa	972.7 kg/m3
21426 kPa	972.6 kg/m3
21732 kPa	972.7 kg/m3
21757 kPa	972.8 kg/m3
21782 kPa	972.8 kg/m3
21811 kPa	972.9 kg/m3
22020 kPa	972.9 kg/m3
22050 kPa	973.1 kg/m3
22076 kPa	973.1 kg/m3
22102 kPa	973 kg/m3
22132 kPa	973.1 kg/m3
22157 kPa	973 kg/m3
22183 kPa	973.2 kg/m3
22214 kPa	973.1 kg/m3
22240 kPa	973.1 kg/m3
22266 kPa	973.1 kg/m3
22296 kPa	973.1 kg/m3
22322 kPa	973.2 kg/m3
22348 kPa	973.2 kg/m3
22379 kPa	973.3 kg/m3
22405 kPa	973.1 kg/m3
22432 kPa	973.3 kg/m3
22458 kPa	973.2 kg/m3
22489 kPa	973.3 kg/m3
22515 kPa	973.3 kg/m3
22547 kPa	973.4 kg/m3
22573 kPa	973.4 kg/m3
23002 kPa	973.6 kg/m3
23035 kPa	973.7 kg/m3
23063 kPa	973.7 kg/m3
23092 kPa	973.8 kg/m3
23125 kPa	973.8 kg/m3
23154 kPa	973.8 kg/m3
23183 kPa	973.8 kg/m3
23212 kPa	973.9 kg/m3
23246 kPa	973.9 kg/m3
23274 kPa	973.9 kg/m3
23301 kPa	974 kg/m3
23332 kPa	973.8 kg/m3
23381 kPa	974 kg/m3
23410 kPa	974 kg/m3
23435 kPa	974 kg/m3
23459 kPa	974 kg/m3
23484 kPa	974.1 kg/m3
23514 kPa	973.9 kg/m3
23540 kPa	974.1 kg/m3
23566 kPa	974 kg/m3
23591 kPa	974.2 kg/m3
23616 kPa	974 kg/m3
23646 kPa	974.1 kg/m3
23671 kPa	974.1 kg/m3
23696 kPa	974.1 kg/m3
23727 kPa	974.1 kg/m3
23752 kPa	974 kg/m3
23782 kPa	974.2 kg/m3
23914 kPa	974.3 kg/m3
23941 kPa	974.3 kg/m3
23971 kPa	974.5 kg/m3
23997 kPa	974.2 kg/m3
24028 kPa	974.3 kg/m3
24054 kPa	974.2 kg/m3
24080 kPa	974.3 kg/m3
24106 kPa	974.3 kg/m3
24137 kPa	974.4 kg/m3
24163 kPa	974.4 kg/m3
24190 kPa	974.4 kg/m3
24221 kPa	974.4 kg/m3
24248 kPa	974.4 kg/m3
24279 kPa	974.4 kg/m3
24306 kPa	974.4 kg/m3
26698 kPa	976.1 kg/m3
26725 kPa	976 kg/m3
26758 kPa	976.2 kg/m3
26785 kPa	976.3 kg/m3
26812 kPa	976.3 kg/m3
26845 kPa	976.2 kg/m3
27601 kPa	976.6 kg/m3
27630 kPa	976.8 kg/m3
27660 kPa	976.8 kg/m3
27697 kPa	976.8 kg/m3
27728 kPa	976.7 kg/m3
27758 kPa	976.8 kg/m3
27787 kPa	976.8 kg/m3
27824 kPa	976.7 kg/m3
27854 kPa	976.9 kg/m3
